Experiments:
[1] = test system: postsynaptic acetylcholine (ACh) receptors; assay type: cell-based, Aplysia californica
[2] = test system: cholinergic synapse of the buccal ganglion; assay type: cell-based, Aplysia californica
[3] = test system: presynaptic Ca2+ current; assay type: cell-based, Aplysia californica
[4] = test system: young mice; conditions: mouse, in vivo

Substance: Gla Cys Cys Gla Asp Gly BrW Cys Cys Thr Ala Ala OHP [P11.1]
- distribution of mean amplitudes of miniature postsynaptic currents with respect to mean amplitude of the LDIPSC [1]: identical to control values
- effect on postsynaptic acetylcholine (ACh) receptors [1]: no effect
- amplitude of the postsynaptic response (IPSC) evoked by a presynaptic action potential, % of the initial value [2]: 40%
- reduction in the number of released quanta [2]: 60%
- presynaptic Ca2+ current, % of the control value [3]: 70%
- dampening of the action potential [4]: about 50%

From US6307014A (priority 1998, dated 2001)
